Data from patent US20100255990A1, “METHOD, COMPOSITION AND KIT FOR PROMOTIONG PLANT GROWTH AND IMPROVING PLANT PRESERVATION” (Doosan Corporation, priority 2005, published 2010).

How the values were obtained:
[1] = system: crimson; assay: Yield of crimson grapes, each treatment carried out two times consecutively; format: in vivo, Vitis Vinifera sp.; conditions: two treatments 40 days apart, LPE 50 ppm, potassium silicate 100 ppm, 200 GPA, Ethrel 400 ppm, 100 GPA, FIG. 1
Experimental: (§1) The grape was selected as a test plant. Crimson and red globe (scientific name: Vitis Vinifera sp.) were used as the grape.
(§2) The control group 2 is the case where they are treated with Ethrel, which is widely sold and used as a plant growth regulator, in an amount of 400 ppm, 100 GPA.
(§3) The control group 3 is such that it is treated with the solution of LPE 10% in an amount of 50 ppm, 200 GPA.
(§4) The solutions were injected in a spray manner, except the control groups 1 and 5. The each treatment was carried out for an area of 5 acres. All treatments were carried out with a typical orchard air blast sprayer.
(§5) All harvests after the each treatment were carried out by the workers belonging to the farm according to the ordinary harvesting method, so that the grapes were harvested in accordance with a commercial standard. The number and grade of the box harvested from the respective treatment row were recorded for each harvest day, with regard to the each treatment.
For the crimson which is cultivated in California, the above 6 treatments were successively carried out two times.

[2] = system: Muscat Bailey A (late-season cv.) grapes; assay: Coloring development of grape fruit; format: in vivo; conditions: two weeks after treatment; LPE 50 ppm, sodium silicate 100 ppm, 200 GPA; FIGS. 7a to 7c
Description: Grapes used in the experiment were Muscat Bailey A (late-season cv.). […] [table]

[3] = system: Muscat Bailey A (late-season cv.) grapes; assay: Color of grape leaves; format: in vivo; conditions: two weeks after treatment; LPE 50 ppm, sodium silicate 100 ppm, 200 GPA; FIGS. 8a to 8c
Experimental: Grapes used in the experiment were Muscat Bailey A (late-season cv.). […] [table] Meanwhile, an observation after two weeks was also carried out for colors of grape leaves.

[4] = system: protoplast of corn root; assay: Reactive oxygen species (ROS) by DCF-DA flow cytometry; format: cell-based, Zea mays L; conditions: incubated 5 minutes
Experimental: The corns (Zea mays L) were used according to the following procedures: seeds of Golden cross Bantam were sufficiently washed in the flowing water and immersed in the distilled water for 24 hours. Then, the seeds were arranged in a line on the cultivation dish where the paper wetted with the distilled water was put on the cultivation dish and the ventral side of the seeds was forced to touch with the dish bottom. The seeds were covered with the wetted paper by two folds. […] The individuals having the root length of 1.5-2 cm were selected and used in this experiment. The protoplast of the corn root etiolated was modified according to the following method (Sheen J, Metabolic repression of transcription in higher plants, Plant Cell, 1990 October: 2(10):1027-38). In other words, the protoplast was separated from the two-day etiolated young corn plant. […] The compound was converted into […] by the esterase in the cell, which was in turn oxidized by the reactive oxygen species such as H2O2 and thus changed into 2′, 7′-dichlorofluorescine (DCF) having the highest fluorescence. […]

[5] = system: red globe; assay: Yield of red globe grapes, each treatment carried out two times consecutively; format: in vivo, Vitis Vinifera sp.; conditions: two treatments 40 days apart, LPE 50 ppm, potassium silicate 100 ppm, 200 GPA, FIG. 3
Experimental: as §1, §2, §3, §4, §5
For the red globe which is cultivated in California, the above 6 treatments were successively carried out two times.

[6] = system: mung beans; assay: Adventitious root growth of mung beans; format: in vivo; conditions: two weeks after treatment; 50 ppm each; FIGS. 9 and 10
[7] = system: Muscat Bailey A (late-season cv.) grapes; assay: Preservation stability of the grape fruit; format: in vivo; set-up: unit not given here; conditions: preserved at room temperature for 14 days
Description: Grapes used in the experiment were Muscat Bailey A (late-season cv.).
The grapes treated in the Example 3 were harvested, and preserved at a room temperature for 14 days. Then, calculation has been done for a ratio of complete grape fruits that were not decayed or no bruise.

[8] = system: crimson; assay: Yield of crimson grapes, single application; format: in vivo, Vitis Vinifera sp.; conditions: one treatment, LPE 50 ppm, potassium silicate 100 ppm, 200 GPA, FIG. 2
Experimental: as §1
The each treatment was carried out for an area of 5 acres. All treatments were carried out with a typical orchard air blast sprayer.
as §5
For the crimson which is cultivated in California, the above 6 treatments were carried out. The treatment was carried out only one time.

lysophosphatidylethanolamine [LPE]
yield of the grapes (ranking of groups) [1]: smaller than those of the control groups 1 and 5 which were not treated
colors of grapes [2]: excellent in the order of the experimental group 4, the control group 11, and the control group 10
colors of grape leaves [3]: many leaves become discolored to yellow
increase amount of ROS ([4]; LPE 20 ppm (combination: + sodium silicate 40 ppm)): 200-300%
increase amount of ROS ([4]; LPE 50 ppm (combination: + sodium silicate 100 ppm)): 200-300%
increase of yield as compared to the control groups 1 and 5, which were not treated [5]: about 22 boxes
length of the adventitious roots [6]: the length thereof is short
number of the adventitious roots [6]: large number
ratio of complete grape fruits that were not decayed or no bruise ([7]; Average of 6 repeats): 6.9
ratio of complete grape fruits that were not decayed or no bruise ([7]; Repeat 1): 14.2
ratio of complete grape fruits that were not decayed or no bruise ([7]; Repeat 2): 15.6
ratio of complete grape fruits that were not decayed or no bruise ([7]; Repeat 3): 4.0
ratio of complete grape fruits that were not decayed or no bruise ([7]; Repeat 4): 0
ratio of complete grape fruits that were not decayed or no bruise ([7]; Repeat 5): 3.7
ratio of complete grape fruits that were not decayed or no bruise ([7]; Repeat 6): 3.7
yield [8]: 96.3
